Test results: patent publication US20260042755A1, “GPR6 INVERSE AGONISTS” (MapLight Therapeutics, Inc., priority 2022, published 2026)

Tests used:
[1] = molecular target: T1, GPR6 (Homo sapiens, UniProt P46095); assay: GPR6 antagonist functional cAMP assay (LANCE Ultra cAMP TR-FRET, CHO cells stably expressing GPR6); type: cell-based
T1 construct: expressed in transfected cells; host or cells: CHO cells
Summary of the method: (§1)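 Cells in Krebs-Ringer buffer with 0.1% BSA and 150 μM Ro 20-1724 PDE inhibitor were exposed to compounds for 45 min at 37 °C (0.1% DMSO). cAMP was read by TR-FRET at 665 nm; IC50s came from 4-parameter fits normalized to DMSO and reference compound.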

[2] = molecular target: T2, GPR3 (Homo sapiens, UniProt P46089); assay: GPR3 antagonist functional cAMP assay (LANCE Ultra cAMP TR-FRET, CHO cells stably expressing GPR3); type: cell-based
T2 construct: expressed in transfected cells; host or cells: CHO cells
T2 sequence (P46089 whole entry, species assumed): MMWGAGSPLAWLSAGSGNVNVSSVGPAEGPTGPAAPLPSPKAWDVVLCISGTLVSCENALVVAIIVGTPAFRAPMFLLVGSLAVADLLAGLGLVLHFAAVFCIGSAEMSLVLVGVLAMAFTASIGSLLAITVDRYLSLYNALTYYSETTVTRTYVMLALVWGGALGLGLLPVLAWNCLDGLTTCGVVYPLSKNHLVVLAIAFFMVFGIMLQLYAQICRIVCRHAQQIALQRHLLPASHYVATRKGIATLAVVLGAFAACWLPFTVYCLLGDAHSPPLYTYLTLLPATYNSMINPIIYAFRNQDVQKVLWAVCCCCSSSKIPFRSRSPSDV
Summary of the method: as §1

[3] = procedure as described in Example 24
[4] = CHO cells stably expressing GPR6, cAMP assay (Example 24)
[5] = CHO cells stably expressing GPR3, cAMP assay (Example 24)
[6] = CHO cells stably expressing GPR6, cAMP assay
[7] = CHO cells stably expressing GPR3, cAMP assay

T1 sequence (P46095 whole entry): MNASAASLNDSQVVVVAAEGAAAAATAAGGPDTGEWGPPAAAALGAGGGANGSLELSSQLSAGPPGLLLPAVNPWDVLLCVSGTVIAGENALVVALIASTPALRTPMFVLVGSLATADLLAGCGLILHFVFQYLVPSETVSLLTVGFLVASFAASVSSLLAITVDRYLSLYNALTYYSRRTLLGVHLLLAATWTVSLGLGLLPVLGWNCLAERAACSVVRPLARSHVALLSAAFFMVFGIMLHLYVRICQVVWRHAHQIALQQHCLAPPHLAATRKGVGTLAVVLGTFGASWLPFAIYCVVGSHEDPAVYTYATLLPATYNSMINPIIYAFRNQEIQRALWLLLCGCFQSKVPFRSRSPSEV

Compound	IC50 [1, 4]	IC50 [2, 5]	further results
Cn1cc(-c2nc3cc([C@](C)(O)C(C)(C)O)ncc3nc2N2CCN(Cc3ccc(F)cc3F)CC2)cn1 (single isomer, unassigned) [Compound 773]			IC50 ([1]; procedure of Example 24): 100 to 1000 nM; IC50 ([2]; procedure of Example 24): 100 to 1000 nM
CC(=O)N1CCc2nc(N3CCC(Oc4ccc(F)cc4F)CC3)c(-c3cccc(OC4CCC4)n3)nc2C1 [Compound 30, 1-[3-(6-cyclobutoxypyridin-2-yl)-2-[4-(2,4-difluorophenoxy)piperidin-1-yl]-5H,6H,7H,8H-pyrido[3,4-b]pyrazin-6-yl]ethan-1-one]			IC50 [1, 3]: 1000 to 30000 nM; IC50 [2, 3]: 1000 to 30000 nM
CC(C)(O)[C@@](C)(O)c1cc2nc(N3CCC(Oc4ccc(F)cc4F)CC3)c(-c3cnn(CF)c3)nc2cn1 (single isomer, unassigned) [Compound 678]			IC50 ([1]; procedure of Example 24): 100 to 1000 nM; IC50 ([2]; procedure of Example 24): 1000 to 30000 nM
CC(C)(C)OC(=O)N1CC(C(=O)N2CCc3nc(N4CCC(Oc5ccc(F)cc5F)CC4)c(-c4cnn(C5CCCCO5)c4)nc3C2)C1 (centres unmarked) [Compound 152, tert-butyl 3-{2-[4-(2,4-difluorophenoxy)piperidin-1-yl]-3-[1-(oxan-2-yl)-1H-pyrazol-4-yl]-5H,6H,7H,8H-pyrido[3,4-b]pyrazine-6-carbonyl}azetidine-1-carboxylate]	1000 to 30000 nM	1000 to 30000 nM	
OCCN1CCc2nc(N3CCC(Oc4ccc(F)cc4F)CC3)c(-c3cn[nH]c3)nc2C1 [Compound 141, 2-{2-[4-(2,4-difluorophenoxy)piperidin-1-yl]-3-(1H-pyrazol-4-yl)-5H,6H,7H,8H-pyrido[3,4-b]pyrazin-6-yl}ethan-1-ol]	1000 to 30000 nM	1000 to 30000 nM	
Cn1cc(-c2nc3cnc(C4CNC(=O)O4)cc3nc2N2CCC(Oc3ccc(F)cc3F)CC2)cn1 (centres unmarked) [Compound 371, 5-(2-(4-(2,4-difluorophenoxy)piperidin-1-yl)-3-(1-methyl-1H-pyrazol-4-yl)pyrido[3,4-b]pyrazin-7-yl)oxazolidin-2-one]			IC50 ([1]; procedure of Example 24): 100 to 1000 nM; IC50 ([2]; procedure of Example 24): 1000 to 30000 nM
CCn1cc(-c2nc3cnc([C@@](C)(O)C(C)(C)O)cc3nc2N2CCC(Oc3ccc(F)cc3F)CC2)cn1 (single isomer, unassigned) [Compound 736]			IC50 ([1]; procedure of Example 24): 100 to 1000 nM; IC50 ([2]; procedure of Example 24): 1000 to 30000 nM
COCC(=O)N1CCc2nc(N3CCC(Oc4ccc(F)cc4F)CC3)c(-c3cnn(C4CCCCO4)c3)nc2C1 (centres unmarked) [Compound 201, 1-{2-[4-(2,4-difluorophenoxy)piperidin-1-yl]-3-[1-(oxan-2-yl)-1H-pyrazol-4-yl]-5H,6H,7H,8H-pyrido[3,4-b]pyrazin-6-yl}-2-methoxyethan-1-one]	1000 to 30000 nM	1000 to 30000 nM	
CC(=O)N1CCc2nc(N3CCC(C(O)c4ccc(F)cc4F)CC3)c(-c3cnn(C)c3)nc2C1 (centres unmarked) [Compound 545, 1-(2-{4-[(2,4-difluorophenyl)hydroxymethyl]-1-piperidyl}-3-(1-methyl-4-pyrazolyl)-5,6,7,8-tetrahydro-1,4,6-triaza-6-naphthyl)-1-ethanone]			IC50 [1, 6]: 100 to 1000 nM; IC50 [2, 7]: 1000 to 30000 nM
COC1CCCC(c2nc3c(nc2N2CCC(Oc4ccc(F)cc4F)CC2)CCN(C(C)=O)C3)C1 (centres unmarked) [Compound 248, 1-{2-[4-(2,4-difluorophenoxy)piperidin-1-yl]-3-(3-methoxycyclohexyl)-5H,6H,7H,8H-pyrido[3,4-b]pyrazin-6-yl}ethan-1-one]	1000 to 30000 nM	1000 to 30000 nM	
CNC(=O)c1ccc2nc(-c3nccn3COC)c(N3CCN(Cc4cc(Cl)ccc4Cl)CC3)nc2c1 [Compound 6, 3-{4-[(2,5-dichlorophenyl)methyl]piperazin-1-yl}-2-[1-(methoxymethyl)-1H-imidazol-2-yl]-N-methylquinoxaline-6-carboxamide]			IC50 [1, 3]: 1000 to 30000 nM; IC50 [2, 3]: 1000 to 30000 nM
CC(C)(O)C(O)c1cc2nc(N3CCN(Cc4ccc(F)cc4F)CC3)c(-c3cnn(C(F)F)c3)nc2cn1 (centres unmarked) [Compound 264, 1-{3-[1-(difluoromethyl)-1H-pyrazol-4-yl]-2-{4-[(2,4-difluorophenyl)methyl]piperazin-1-yl}pyrido[3,4-b]pyrazin-7-yl}-2-methylpropane-1,2-diol]	< 100 nM	1000 to 30000 nM	
CC(C)(O)CNc1cc2nc(-c3cnn(CF)c3)c(N3CCN(Cc4ccc(F)cc4F)CC3)nc2cn1 [Compound 757, 1-(3-{4-[(2,4-difluorophenyl)methyl]-1-piperazinyl}-2-[1-(fluoromethyl)-4-pyrazolyl]-1,4,6-triaza-7-naphthylamino)-2-methyl-2-propanol]			IC50 ([1]; procedure of Example 24): 100 to 1000 nM; IC50 ([2]; procedure of Example 24): 1000 to 30000 nM
CC(=O)N1CCc2nc(N3CCN(C(O)c4cocn4)CC3)c(-c3cnn(C)c3)nc2C1 (centres unmarked) [Compound 523, 1-(2-{4-[hydroxy(1,3-oxazol-4-yl)methyl]-1-piperazinyl}-3-(1-methyl-4-pyrazolyl)-5,6,7,8-tetrahydro-1,4,6-triaza-6-naphthyl)-1-ethanone]			IC50 [1, 6]: ≥ 30000 nM; IC50 [2, 7]: ≥ 30000 nM
CC(=O)N1CCc2nc(N3CCN(Cc4ccc(Cl)cc4F)CC3)c(-c3cnn(C)c3)nc2C1 [Compound 348, 1-(2-{4-[(4-chloro-2-fluorophenyl)methyl]piperazin-1-yl}-3-(1-methyl-1H-pyrazol-4-yl)-5H,6H,7H,8H-pyrido[3,4-b]pyrazin-6-yl)ethan-1-one]			IC50 ([1]; procedure of Example 24): 100 to 1000 nM; IC50 ([2]; procedure of Example 24): 1000 to 30000 nM
COc1ccnc(-c2nc3c(nc2N2CCC(Oc4ccc(F)cc4F)CC2)CCN(C(C)=O)C3)c1 [Compound 7, 1-(2-(4-(2,4-difluorophenoxy)piperidin-1-yl)-3-(4-methoxypyridin-2-yl)-7,8-dihydropyrido[3,4-b]pyrazin-6(5H)-yl)ethan-1-one]			IC50 [1, 3]: 1000 to 30000 nM; IC50 [2, 3]: 100 to 1000 nM
CC(=O)N1CCc2nc(N3CCC(Oc4ccc(F)cc4F)CC3)c(-c3ccn(C)c(=O)c3)nc2C1 [Compound 78, 4-{6-acetyl-2-[4-(2,4-difluorophenoxy)piperidin-1-yl]-5H,6H,7H,8H-pyrido[3,4-b]pyrazin-3-yl}-1-methyl-1,2-dihydropyridin-2-one]	1000 to 30000 nM	1000 to 30000 nM	
CC(=O)N1CCc2nc(N3CCC(Oc4ccc(F)cc4F)CC3)c(-c3cncc(Cl)n3)nc2C1 [Compound 243]	1000 to 30000 nM	1000 to 30000 nM	
COc1ccccc1CN1CCN(c2nc3c(nc2-c2cnn(C)c2)CN(C(C)=O)CC3)CC1 [Compound 509, 1-(2-{4-[(o-methoxyphenyl)methyl]-1-piperazinyl}-3-(1-methyl-4-pyrazolyl)-5,6,7,8-tetrahydro-1,4,6-triaza-6-naphthyl)-1-ethanone]			IC50 [1, 6]: ≥ 30000 nM; IC50 [2, 7]: 1000 to 30000 nM
N#CN1CCc2nc(N3CCC(Oc4ccc(F)cc4F)CC3)c(-c3cnn(C4CCCCO4)c3)nc2C1 (centres unmarked) [Compound 200, 2-[4-(2,4-difluorophenoxy)piperidin-1-yl]-3-[1-(oxan-2-yl)-1H-pyrazol-4-yl]-5H,6H,7H,8H-pyrido[3,4-b]pyrazine-6-carbonitrile]	1000 to 30000 nM	1000 to 30000 nM	
CC(C)(O)C(C)(O)c1cc2nc(-c3cnn(C(F)F)c3)c(N3CCN(Cc4ccc(F)cc4F)CC3)nc2cn1 (single isomer, unassigned) [Compound 662]			IC50 ([1]; procedure of Example 24): < 100 nM; IC50 ([2]; procedure of Example 24): 1000 to 30000 nM
CC(C)S(=O)(=O)N1CCc2nc(N3CCC(Oc4ccc(F)cc4F)CC3)c(-c3ccc(F)c(N)n3)nc2C1 [Compound 627, 6-{2-[4-(2,4-difluorophenoxy)-1-piperidyl]-6-(isopropylsulfonyl)-5,6,7,8-tetrahydro-1,4,6-triaza-3-naphthyl}-3-fluoro-2-pyridylamine]			IC50 ([1]; procedure of Example 24): 100 to 1000 nM; IC50 ([2]; procedure of Example 24): 1000 to 30000 nM
Cn1cc(-c2nc3cnc(C(O)CC#N)cc3nc2N2CCC(Oc3ccc(F)cc3F)CC2)cn1 (centres unmarked) [Compound 402, 3-(2-(4-(2,4-difluorophenoxy)piperidin-1-yl)-3-(1-methyl-1H-pyrazol-4-yl)pyrido[3,4-b]pyrazin-7-yl)-3-hydroxypropanenitrile]	1000 to 30000 nM	1000 to 30000 nM	

More lines, main results first:

IC50 [1, 4]	IC50 [2, 5]	Compound	further results
1000 to 30000 nM	≥ 30000 nM	CC(=O)N1CCc2nc(N3CCC(Oc4ccc(F)cc4F)CC3)c(-c3cccc(NC(C)C)n3)nc2C1 [Compound 103, 1-{2-[4-(2,4-difluorophenoxy)piperidin-1-yl]-3-{6-[(propan-2-yl)amino]pyridin-2-yl}-5H,6H,7H,8H-pyrido [3,4-b]pyrazin-6-yl}ethan-1-one]	
1000 to 30000 nM	1000 to 30000 nM	CC(=O)N1CCc2nc(N3CCC(Oc4ccc(F)cc4F)CC3)c(C3CCC(F)(F)CC3)nc2C1 [Compound 217, 1-[3-(4,4-difluorocyclohexyl)-2-[4-(2,4-difluorophenoxy)piperidin-1-yl]-5H,6H,7H,8H-pyrido[3,4-b]pyrazin-6-yl]ethan-1-one]	
1000 to 30000 nM	1000 to 30000 nM	CC(=O)N1CCc2nc(N3CCC(Oc4ccc(F)cc4F)CC3)c(-c3cnn(C(C)(C)C#N)c3)nc2C1 [Compound 196, 2-(4-{6-acetyl-2-[4-(2,4-difluorophenoxy)piperidin-1-yl]-5H,6H,7H,8H-pyrido[3,4-b]pyrazin-3-yl}-1H-pyrazol-1-yl)-2-methylpropanenitrile]	
100 to 1000 nM	1000 to 30000 nM	Cn1cc(-c2nc3c(nc2N2CCC(Oc4ccc(F)cc4F)CC2)CC2COCC(=O)N2C3)cn1 (centres unmarked) [Compound 488, 6-[4-(2,4-difluorophenoxy)piperidin-1-yl]-5-(1-methyl-1H-pyrazol-4-yl)-12-oxa-1,4,7-triazatricyclo[8.4.0.0^3,8]tet radeca-3(8),4,6-trien-14-one]	
1000 to 30000 nM	1000 to 30000 nM	CC(=O)N1CCc2nc(N3CCC(C(=O)N4CCN(C)C(=O)C4)C3)c(-c3cnn(C)c3)nc2C1 (centres unmarked) [Compound 390, 4-{1-[6-acetyl-3-(1-methyl-1H-pyrazol-4-yl)-5H,6H,7H,8H-pyrido[3,4-b]pyrazin-2-yl]pyrrolidine-3-carbonyl}-1-methylpiperazin-2-one]	
